Data set [1] has as its target T1, large form of P-TEFb (Homo sapiens, UniProt P50750). Put plainly: Differential salt extraction, loss of large form of P-TEFb in Jurkat cells. Type of data set: cell-based. Particulars: 1 hour treatment, increasing concentrations. As for the experimental part: (§1) The cytosolic extracts were prepared by resuspending the cells in 80 μl of Buffer A (10 mM KCl, 10 mM MgCl2, 10 mM HEPES, 1 mM EDTA, 1 mM DTT, 0.1% PMSF and EDTA-free complete protease inhibitor cocktail (Roche)) with 0.5% NP-40 for 10 minutes on ice. The nuclei were spun down at 5,000 g for 5 minutes and the supernatant was saved as the cytosolic extract (CE). The nuclei were washed once with 200 μl of Buffer A with 0.5% NP-40 and re-pelleted. The nuclei were resuspended in 80 μl of Buffer B (450 mM NaCl, 1.5 mM MgCl2, 20 mM HEPES, 0.5 mM EDTA, 1 mM DTT, 0.1% PMSF and EDTA-free complete protease inhibitor cocktail (Roche)) and incubated on ice for 10 minutes. The lysates were clarified by centrifugation at 20,000 g for 10 minutes. The supernatant was saved as the nuclear extract (NE). Western blotting was performed with one fifth of the samples and the fraction of Cdk9 and cyclin T1 in the cytosolic and nuclear extracts was determined by imaging the chemiluminescent signal using a cooled CCD camera (UVP). The signal was quantitated using LabWorks 4.0 software and the data fit to a logistic dose response curve using TableCurve (Jandel Scientific) to determine the IC50 for loss of the large, low salt extractable form of P-TEFb.

In data set [2] the test system is HIV-1p256. Put plainly: microbe, parasite or virus in culture. Type of data set: cell-based. Particulars: Human immunodeficiency virus 1, HeLa37, 40 h, read-out: IC50 of inhibition of HIV in HeLa 37 cells. As to the method: Short-term, single hit infectivity studies were performed as previously described. HeLa37 cells were plated in a 48-well tray and triplicate wells were infected with a dual-tropic HIV-1p256 and serial dilutions of P-TEFb inhibitor for 40 hours. The cells were fixed with 75% acetone/25% H2O and immunostained for HIV-1 antigens using human anti-HIV serum (a gift from Dr. Jack Stapleton, Univ. of Iowa) and HRP-conjugated goat anti-human IgG followed by staining with 3-amino-9-ethylcarbazole (AEC). The HIV-1 antigen-positive cells were counted. Experiments were repeated at least three times with each drug concentration in triplicate.

The target of data set [3] is T1, large form of P-TEFb. Put plainly: Differential salt extraction, loss of large form of P-TEFb in HeLa cells. Type of data set: cell-based. Particulars: for IC50: 1 hour treatment. As for the experimental part:
as §1

Data set [4] concerns the target recombinant P-TEFb (Cdk9/cyclin T1) (Homo sapiens, UniProt P50750). Also on record: method as in earlier work. The settings on record: preparation of DRB tested earlier; Peng et al (1998) Genes and Dev. 12: 755–762; read-out: IC50 of kinase inhibition; cited from earlier work.
The subject of another data set is HeLa37 cells. Put plainly: Cell viability (ATPlite) in HeLa37 cells. Type of data set: cell-based. Particulars: performed in parallel to the 40 hour infectivity assay. As to the method:
(§2) The impact of the P-TEFb inhibitors on cell viability was measured by ATPlite (Perkin Elmer). These cytotoxicity studies were performed as recommended by manufacturer utilizing a substrate solution that emits light in a manner proportional to the ATP present in each sample. Cells were plated in a 48-well format. Cells were treated with serial dilutions of the P-TEFb inhibitors and maintained for the indicated period of time. Mammalian cell lysis buffer was added to lyse the cells, followed by addition of the substrate solution. The amount of light produced in each well was measured in a TopCountR Microplate Scintillation and Luminescence Counter (Packard Instruments). Cytotoxicity experiments in HeLa37 cells were repeated at least three times with triplicates of each drug concentration.
Background: In ATP-based viability assays light output follows the ATP content of the culture.

For data set [5], the target named is T1, large form of P-TEFb. Put plainly: Glycerol gradient analysis of large and free forms of P-TEFb in DRB-treated HeLa cells. The data set is classed as cell-based. As to the method:
HeLa cells were grown in 100 ml of DMEM with 10% FCS to a density of 4 × 10^5 cells/ml in spinner flasks. The cells were treated for 1 hour with no P-TEFb inhibitor or serial dilutions of DRB ranging from 0.1 to 10 μM. Cell lysates were prepared in Buffer A (10 mM KCl, 10 mM MgCl2, 10 mM HEPES, 1 mM EDTA, 1 mM DTT, 0.1% PMSF and EDTA-free complete protease inhibitor cocktail (Roche)) containing 150 mM NaCl and 0.5% NP-40. The lysates were clarified by centrifugation at 20,000 g for 10 minutes at 4°C. The supernatant was layered on top of a 5–45% glycerol gradient containing 150 mM NaCl. Gradients were spun at 190,000 g for 16 hours using a SW-55Ti rotor. The fractions were analyzed for the presence of P-TEFb complexes by immunoblotting with anti-cyclin T1 and anti-Cdk9 antibodies (Santa Cruz). Following incubation with the appropriate HRP-conjugated secondary antibodies, the blots were developed using SuperSignal DuraWest (Pierce). The western blots were imaged using a cooled CCD camera (UVP) and the amount of P-TEFb in the large and free form was quantitated using LabWorks 4.0 software.

In data set [6] the test system is HIV-1p256. Put plainly: Long-term HIV-1 replication in MDMs (RT activity in supernatants). Type of data set: cell-based. Particulars: Human immunodeficiency virus 1, pooled data of independent donors; days 4, 8, 12, 16; read-out: average IC50 for inhibition of HIV-1 replication in MDMs. As for the experimental part: (§3) Peripheral blood mononuclear cells (PBMCs) were isolated as previously described. Briefly, PBMCs were separated by centrifugation in lymphocyte separation medium (ICN Biomedicals, Solon, Ohio). The separated PBMCs were placed on gelatin and fibronectin-coated flasks in order to separate monocytes from mononuclear cells. […] PBLs were treated with 5 μg/ml of phytohaemagglutinin (PHA) for 72 hours prior to HIV infection and drug treatment. […] During long term studies in primary cells, supernatants were collected at 4, 8, 12 and 16 days post-infection, frozen at -80°C until analyzed and media was refreshed. […] Reverse transcriptase (RT) assays were performed on supernatants from HIV-1p256 infected cells as previously described. […] The mixture was incubated at 37°C for 3.5 hours and then blotted onto DE81 paper. The DE81 paper was washed 4 times with 3× SSPE and the amount of radioactivity that was incorporated into negative strand DNA was quantified with an InstantImager (Packard Instruments).

Data set [7] relates to monocyte derived macrophages (MDMs). Put plainly: Cell viability (ATPLite) in MDMs. The data set is classed as cell-based, human. Particulars: pooled data of independent donors; days 4, 8, 12, 16. As for the experimental part:
Human monocyte derived macrophages (MDMs) and peripheral blood lymphocytes (PBLs) cells were isolated from 350 ml of peripheral blood from healthy, HIV negative donors. Peripheral blood mononuclear cells (PBMCs) were isolated as previously described. Briefly, PBMCs were separated by centrifugation in lymphocyte separation medium (ICN Biomedicals, Solon, Ohio). The separated PBMCs were placed on gelatin and fibronectin-coated flasks in order to separate monocytes from mononuclear cells. Adherent monocytes were lifted with EDTA, washed and plated at a density of 1 × 10^6 per well in 48-well trays for infectivity and cytotoxicity studies. Monocytes were differentiated for 5 days in DMEM with 10% FCS, 10% human serum and 1% penicillin/streptomycin in order to generate monocyte-derived macrophages prior to HIV infections and drug treatment. PBLs were treated with 5 μg/ml of phytohaemagglutinin (PHA) for 72 hours prior to HIV infection and drug treatment. […] During long term studies in primary cells, supernatants were collected at 4, 8, 12 and 16 days post-infection, frozen at -80°C until analyzed and media was refreshed.
The impact of the P-TEFb inhibitors on cell viability was measured by ATPlite (Perkin Elmer). […] The amount of light produced in each well was measured in a TopCountR Microplate Scintillation and Luminescence Counter (Packard Instruments). […]

Data set [8] relates to peripheral blood lymphocytes (PBLs). Put plainly: Cell viability (ATPLite) in PBLs. The data set is classed as cell-based, human. The settings on record: average of days 4, 8, 12, 16. As to the method:
Human monocyte derived macrophages (MDMs) and peripheral blood lymphocytes (PBLs) cells were isolated from 350 ml of peripheral blood from healthy, HIV negative donors. Peripheral blood mononuclear cells (PBMCs) were isolated as previously described. Briefly, PBMCs were separated by centrifugation in lymphocyte separation medium (ICN Biomedicals, Solon, Ohio). The separated PBMCs were placed on gelatin and fibronectin-coated flasks in order to separate monocytes from mononuclear cells. Adherent monocytes were lifted with EDTA, washed and plated at a density of 1 × 10^6 per well in 48-well trays for infectivity and cytotoxicity studies. Monocytes were differentiated for 5 days in DMEM with 10% FCS, 10% human serum and 1% penicillin/streptomycin in order to generate monocyte-derived macrophages prior to HIV infections and drug treatment. PBLs were treated with 5 μg/ml of phytohaemagglutinin (PHA) for 72 hours prior to HIV infection and drug treatment. PHA-treated PBLs were plated at a density of 1 × 10^6 per well in 48-well trays and maintained in RPMI 1640 with 10% FCS, 1% Penicillin/Streptomycin and 10 units/ml of recombinant IL-2. Viral infection was performed in MDMs and PBLs by adding 10,000 RT units of HIV-1p256 stock per 1 × 10^6 cells. During long term studies in primary cells, supernatants were collected at 4, 8, 12 and 16 days post-infection, frozen at -80°C until analyzed and media was refreshed.
as §2, with “Cytotoxicity experiments in HeLa37 cells were repeated at least three times with triplicates of each drug concentration.” left out

In data set [9] the test system is HIV-1p256. Put plainly: Long-term HIV-1 replication in PBLs (RT activity in supernatants). The data set is classed as cell-based. Particulars: average of days 4, 8, 12, 16, read-out: average IC50 for inhibition of viral replication in PBLs. As to the method: as §3
The conditions of data set [10]: Phase I trials, highest tested doses; cited from earlier work.
A further data set deals with HIV-1. On the set-up: method as in PMID 11461999. The settings on record: extensive 6 month study; cited from earlier work.

T1 sequence (P50750 whole entry): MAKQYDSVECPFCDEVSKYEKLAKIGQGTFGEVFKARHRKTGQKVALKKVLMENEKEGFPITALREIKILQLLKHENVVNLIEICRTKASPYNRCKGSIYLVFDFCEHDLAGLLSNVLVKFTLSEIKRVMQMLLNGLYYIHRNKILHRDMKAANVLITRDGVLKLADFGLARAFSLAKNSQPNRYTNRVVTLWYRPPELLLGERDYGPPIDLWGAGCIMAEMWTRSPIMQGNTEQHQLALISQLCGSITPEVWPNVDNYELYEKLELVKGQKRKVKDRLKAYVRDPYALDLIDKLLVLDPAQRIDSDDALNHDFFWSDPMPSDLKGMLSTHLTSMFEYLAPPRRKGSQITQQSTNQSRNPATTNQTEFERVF
T1 sequence (O60563 whole entry, further chain): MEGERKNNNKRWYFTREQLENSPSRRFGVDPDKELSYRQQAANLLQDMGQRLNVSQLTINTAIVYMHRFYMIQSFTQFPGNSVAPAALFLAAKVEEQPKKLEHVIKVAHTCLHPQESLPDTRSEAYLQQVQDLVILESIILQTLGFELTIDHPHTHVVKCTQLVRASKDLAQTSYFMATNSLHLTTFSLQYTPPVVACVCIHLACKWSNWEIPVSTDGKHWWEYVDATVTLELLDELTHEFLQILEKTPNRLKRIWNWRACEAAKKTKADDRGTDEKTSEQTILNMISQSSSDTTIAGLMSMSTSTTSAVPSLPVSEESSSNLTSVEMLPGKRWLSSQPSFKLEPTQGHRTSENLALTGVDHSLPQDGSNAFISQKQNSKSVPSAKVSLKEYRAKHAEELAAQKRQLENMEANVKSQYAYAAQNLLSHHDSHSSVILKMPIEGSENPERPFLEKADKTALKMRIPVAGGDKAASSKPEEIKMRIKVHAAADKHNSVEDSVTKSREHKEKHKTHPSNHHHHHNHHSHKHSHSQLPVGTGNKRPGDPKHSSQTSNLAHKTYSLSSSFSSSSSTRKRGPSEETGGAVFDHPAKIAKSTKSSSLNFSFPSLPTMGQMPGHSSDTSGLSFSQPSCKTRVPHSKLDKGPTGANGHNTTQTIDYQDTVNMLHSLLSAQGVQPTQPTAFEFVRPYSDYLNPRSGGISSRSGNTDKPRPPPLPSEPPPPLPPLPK
Sequence of recombinant P-TEFb (Cdk9/cyclin T1) (P50750 whole entry): as the sequence (P50750 whole entry) above
Sequence of recombinant P-TEFb (Cdk9/cyclin T1) (O60563 whole entry partner): as the sequence (O60563 whole entry, further chain) above

Consider `OC[C@H]1O[C@@H](n2cnc3cc(Cl)c(Cl)cc32)[C@H](O)[C@@H]1O` [DRB, 5,6-dichloro-1-beta-D-ribofuranosylbenzimidazole], for which, at large form of P-TEFb [1], the “effect on amount of the large form of P-TEFb” value is on record as “gradual reduction of the large form”. The IC50 in the data set on HIV-1p256 [2] was 2.6 µM; on large form of P-TEFb [3] (read-out: IC50 for the release of free form of P-TEFb from the large form of the complex, HeLa37 cells, low salt extraction), about 4.5 µM; at large form of P-TEFb [3] (read-out: IC50 of loss of large form from HeLa cells: Cdk9, Cdk9 western blot), 4.2 ± 1.6 µM; at large form of P-TEFb [3] (read-out: IC50 of loss of large form from HeLa cells: Cyclin T1, cyclin T1 western blot), 5 ± 3 µM; in [4], 0.9 µM; at large form of P-TEFb [5] (HeLa cells, 1 hour treatment, Cdk9 and cyclin T1 immunoblot of glycerol gradient fractions, read-out: concentration causing a 50% reduction in large form within the cell) it was about 3 µM. Also, on large form of P-TEFb [3] (HeLa cells, 100 μM DRB, 1 hour, untreated approx. 50% in cytosolic extract), the “P-TEFb subunits in cytosolic extracts prepared with low salt lysis buffer” value is recorded as “not detected”. In the data set with HeLa37 cells, the “Hela37 cell cytotoxicity (LD50)” value was 20 µM. Further, at large form of P-TEFb [5] (10 μM DRB, 1 hour, without DRB approx. 60% of Cdk9 and 70% of cyclin T1), the “P-TEFb subunits left in the large form of the complex” value is reported as “about 20%”.

Turning to `CN1CC[C@H](c2c(O)cc(O)c3c(=O)cc(-c4ccccc4Cl)oc23)[C@H](O)C1` [Flavopiridol], the IC50 worked out at 0.061 µM in the data set with HIV-1p256 [6]; 0.0095 µM with HIV-1p256 [2]; 0.035 µM in the data set with HIV-1p256 [9] (Human immunodeficiency virus 1, donor #1); 0.04 µM with HIV-1p256 [9] (Human immunodeficiency virus 1, donor #2); 0.061 µM with HIV-1p256 [9] (Human immunodeficiency virus 1, donor #3). Moreover, the “LD50 in MDMs” value in data set [7] is on record as 99 nM. In addition, the “LD50 in PBLs” value is reported as 143 nM in [8] (donor #1), 81 nM in [8] (donor #2) and 123 nM in [8] (donor #3). In addition, the “effect on amount of the large form of P-TEFb” value on large form of P-TEFb [1] was “gradual reduction in the amount of the large form”. Besides, the “Hela37 cell cytotoxicity (LD50)” value with HeLa37 cells was 0.225 µM.

Regarding `CC[C@H](CO)Nc1nc(NCc2ccccc2)c2ncn(C(C)C)c2n1` [Seliciclib], the side effects caused entry in [10] is “fatigue and elevated creatinine”.

Take `CC[C@H](CO)Nc1nc(NCc2ccccc2)c2ncn(C(C)C)c2n1` [roscovitine]: in the data set with HIV-1, the “generation of a resistant HIV-1 strain” value is reported as “unsuccessful”.

Source of the values: paper PMC1948018 (Retrovirology, 2007).
